Experimental data: patent US20030232986A1, “Inhibitors of caspases” (Vertex Pharmaceuticals Incorporated, priority 1998, published 2003)
Where a SMILES comes first, the peptide text is derived from it. [ ]: non-standard residue; d: D form. The star is where a group is joined. Aze = O=C(O)[C@@H]1CCN1; Bz = O=C(c1ccccc1)*

Assays:
[1] = tested on: Human whole blood, IL-1β production; assay: Whole blood assay for IL-1β production; assay type: cell-based; conditions: LPS-stimulated whole blood, IL-1β by ELISA
In short: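 LPS-stimulated (5.0 ng/ml final) human whole blood incubated with test compound in saline (or plasma/PBS-5% DMSO for hydrophobic compounds) at 30° C for 16-18 hr. Plasma IL-1β then measured by ELISA at 1:200 dilution, against no-LPS, no-inhibitor and vehicle controls.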

Caspase-1 = target: T1, Caspase-1 (Homo sapiens, UniProt P29466); assay: Caspase-1 enzyme inhibition (Ki); assay type: biochemical; conditions: substrate Suc-YVAD-pNA 80 μM, 37° C., pH 7.5
T1 sequence (P29466 120-297 limits assumed): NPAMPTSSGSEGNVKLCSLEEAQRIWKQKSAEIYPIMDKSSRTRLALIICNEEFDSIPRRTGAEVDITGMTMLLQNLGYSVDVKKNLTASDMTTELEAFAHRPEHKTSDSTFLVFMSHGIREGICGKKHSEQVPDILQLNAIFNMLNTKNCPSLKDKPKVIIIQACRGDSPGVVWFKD
T1 sequence (P29466 317-404 limits assumed): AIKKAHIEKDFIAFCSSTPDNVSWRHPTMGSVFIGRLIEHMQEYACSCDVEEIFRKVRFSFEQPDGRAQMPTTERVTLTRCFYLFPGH
In short: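 Ki obtained by fitting rate versus inhibitor concentration to the Morrison tight-binding equation for competitive inhibitors, with pNA release read at 405 nm at 37 °C. Substrate Suc-YVAD-pNA (80 μM final) added after 15 min enzyme–inhibitor preincubation in Tris pH 7.5 buffer with DTT and CHAPS.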

[2] = tested on: Human Peripheral Blood Mononuclear Cells (PBMC), mature IL-1β; assay: PBMC cell assay: IL-1β assay with human peripheral blood mononuclear cells; assay type: cell-based; conditions: LPS-stimulated human PBMC, mature IL-1β in supernatant by ELISA
In short: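 Donor PBMC (suspension at 6×10^6 cells/ml) or adherent-enriched monocytes were stimulated with 5 ng/ml LPS (final) alongside 5–6 compound dilutions bracketing the ICE Ki, at 0.1% DMSO final, for 16–18 hr at 37° C, 5% CO2. Mature IL-1β in supernatants was measured by ELISA; IC50 was calculated relative to LPS-only controls.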

| SMILES | IC50 [1] [µM] | Ki (Caspase-1) [µM] | IC50 [2] [µM] |
| --- | --- | --- | --- |
| CC(NC(=O)c1ccc(N)c(Cl)c1)C(=O)N1N=CC(C)C1C(=O)NC(C=O)CC(=O)O (stereo not drawn) [Example 23g, 3-({2-[2-(4-Amino-3-chloro-benzoylamino)-propionyl]-4-methyl-3,4-dihydro-2H-pyrazole-3-carbonyl}-amino)-4-oxo-butyric acid] | < 2.5 | < 0.01 | 1 to 2 |
| COC1CC(C(=O)NC(C=O)CC(=O)O)N(C(=O)C(C)NC(=O)c2ccc(N)c(Cl)c2)C1 (stereo not drawn) [Example 23i, 3-({1-[2-(4-amino-3-chloro-benzoylamino)-propionyl]-4-methoxy-pyrrolidine-2-carbonyl}-amino)-4-oxo-butyric acid] | 2.5 to 7.5 | 0.01 to 1 | < 0.5 |
| CC(C)[C@H](NC(=O)c1ccccc1)C(=O)N1CC[C@H]1C(=O)N[C@H](C=O)CC(=O)O [Example 24d] (Bz-Val-[Aze]-Asp-aldehyde) | 2.5 to 7.5 | 0.01 to 1 | 0.5 to 1 |
| C[C@H](NC(=O)c1nccc2ccccc12)C(=O)N1CCCC[C@H]1C(=O)N[C@H](C=O)CC(=O)O [Example 25a] | 2.5 to 7.5 | < 0.01 | < 0.5 |
| CC(C)[C@H](NC(=O)c1nccc2ccccc12)C(=O)N1CCCC[C@H]1C(=O)N[C@H](C=O)CC(=O)O [Example 25b] | 2.5 to 7.5 | < 0.01 | 0.5 to 1 |
| CC(C)(C)[C@H](NC(=O)c1nccc2ccccc12)C(=O)N1CCCC[C@H]1C(=O)N[C@H](C=O)CC(=O)O [Example 25c] | 2.5 to 7.5 | < 0.01 | 0.5 to 1 |
| COc1ccc(C(=O)N[C@H](C(=O)N2C3CCCCC3C[C@H]2C(=O)N[C@H](C=O)CC(=O)O)C(C)C)cc1 (stereo partly drawn) [Example 26d] | < 2.5 | < 0.01 | 0.5 to 1 |
| CC(C)[C@H](NC(=O)c1nccc2ccccc12)C(=O)N1C[C@H](c2ccccc2)C[C@H]1C(=O)N[C@H](C=O)CC(=O)O [Example 26h] | < 2.5 | < 0.01 | < 0.5 |
| CC(C)[C@H](NC(=O)c1nccc2ccccc12)C(=O)N1CSC(C)(C)[C@H]1C(=O)N[C@H](C=O)CC(=O)O [Example 28c] | > 7.5 | < 0.01 | 0.5 to 1 |

The next lines start with results.

| IC50 [1] [µM] | Ki (Caspase-1) [µM] | SMILES | IC50 [2] [µM] |
| --- | --- | --- | --- |
| < 2.5 | < 0.01 | C[C@H](NC(=O)c1nccc2ccccc12)C(=O)N[C@@H](C)C(=O)N[C@H](C=O)CC(=O)O [Example 29c] | 0.5 to 1 |
| < 2.5 | < 0.01 | C[C@H](NC(=O)c1cccc2ccccc12)C(=O)N[C@@H](C)C(=O)N[C@H](C=O)CC(=O)O [Example 29d] | 0.5 to 1 |
| < 2.5 | < 0.01 | Cc1cc(C(=O)N[C@H](C(=O)N[C@@H](C)C(=O)N[C@H](C=O)CC(=O)O)C(C)C)cc(C)c1O [Example 29e] | < 0.5 |
| < 2.5 | < 0.01 | Cc1cc(C(=O)N[C@@H](C)C(=O)N[C@@H](C)C(=O)N[C@H](C=O)CC(=O)O)cc(C)c1O [Example 29h] | < 0.5 |
| < 2.5 | < 0.01 | CC(C)[C@H](NC(=O)c1cc2ccccc2[nH]1)C(=O)N[C@@H](C)C(=O)N[C@H](C=O)CC(=O)O [Example 29i] | < 0.5 |
| < 2.5 | < 0.01 | C[C@H](NC(=O)[C@@H](NC(=O)c1cc2ccccc2[nH]1)C(C)(C)C)C(=O)N[C@H](C=O)CC(=O)O [Example 29j] | 0.5 to 1 |
| < 2.5 | < 0.01 | C[C@H](NC(=O)[C@@H](NC(=O)c1cccc2ccccc12)C(C)(C)C)C(=O)N[C@H](C=O)CC(=O)O [Example 29k] | < 0.5 |
| < 2.5 | 0.01 to 1 | CC(C)[C@H](NC(=O)c1ccc(O)cc1)C(=O)N[C@@H](C)C(=O)N[C@H](C=O)CC(=O)O [Example 29l] | 0.5 to 1 |
